Measurements taken from patent US20130059805A1, “COMPOSITION COMPRISING AN AMORPHOUS NON-CRYSTALLINE GLASS FORM OF AZITHROMYCIN” (North-West University, priority 2009, published 2013).
Converted amounts (≈) assume the structure as drawn. Like-named read-outs stand apart in the source and are kept apart here.

Key:
[1] = Solubility in four media (excess solid, 37 degrees Celsius, 24 h, HPLC assay); assay type: physicochemical; settings: for solubility at 24 h: 37 °C, thermodynamic from solid
Description: In further analysis of the amorphous non-crystalline glass form (Form-II) of azithromycin, each of five replicate test tubes were filled with an excess of amorphous non-crystalline glass form (Form-II) of azithromycin and 10 ml of solubility medium. The process was performed with each of the following mediums: 0.1 N hydrochloric acid (pH 1), acetate buffer (pH 4.5), phosphate buffer (pH 6.8) and distilled water. This method was also used for testing the prior art azithromycin dihydrate.
The test tubes were then fixed to a rotating axis (54 rpm) and submerged in a water bath at 37 degrees Celsius±2 degrees Celsius for twenty-four hours. The contents of the test tubes were filtered through a 0.45 μm filter and the respective filtrates were subsequently diluted.
The concentrations of the filtrates were determined by HPLC (high performance liquid chromatography) assay. The HPLC assay was performed utilising a mobile phase (600:400) consisting of 8.7 g/L potassium dihydrogen phosphate buffer (pH 4.5) and acetonitrile. A Luna C18 250 mm×4.6 mm column was used with a flow rate of 0.5 mL/min and a wavelength of 210 nm. Validation of this method provided a linear regression r^2 of 0.9999.

[2] = Structural stability study at 40° C. and 75% relative humidity (XRPD, DSC, thermal microscopy); assay type: physicochemical; settings: 4 week testing period
Description: FIG. 5: is a characteristic XRPD (x-ray powder diffraction pattern) of amorphous non-crystalline glass form (Form-II) of azithromycin taken over a period of time wherein 0 is at time of preparation, 1 is week 1, 2 is week 2, 3 is week 3 and 4 is week 4 (Vertical axis: intensity (Lin (counts)); Horizontal axis: 2 Theta (degrees));
FIG. 12: is a DSC (differential scanning calorimetry) trace of amorphous non-crystalline glass form (Form-II) of azithromycin, taken over a period of time, according to one embodiment of the invention wherein 0 is at time of preparation, 1 is week 1, 2 is week 2, 3 is week 3 and 4 is week 4 (Vertical axis: Heat flow (mW); Horizontal axis: temperature (degrees Celsius));
FIG. 13: is a thermal microscopy image (at 25 degrees Celsius) of amorphous non-crystalline glass form (Form-II) of azithromycin taken in the fourth week after preparation according to one embodiment of the invention; and […]

[3] = background statement; cited from earlier work
[4] = 0.1 N HCl; cited from earlier work
[5] = oral; cited from earlier work

CC[C@H]1OC(=O)[C@H](C)[C@@H](O[C@H]2C[C@@](C)(OC)[C@@H](O)[C@H](C)O2)[C@H](C)[C@@H](O[C@@H]2O[C@H](C)C[C@H](N(C)C)[C@H]2O)[C@](C)(O)C[C@@H](C)CN(C)[C@H](C)[C@@H](O)[C@]1(C)O
solubility in 0.1 N HCl ([1]; 0.1 N HCl (pH 1), 37 degrees Celsius): 45.703 ± 0.917 mg/mL (≈ 61 mM) | solubility in acetate buffer (pH 4.5) ([1]; acetate buffer pH 4.5, 37 degrees Celsius): 18.045±0.485 mg/mL | solubility in distilled water ([1]; distilled water, 37 degrees Celsius): 1.357 ± 0.233 mg/mL (≈ 1.81 mM) | solubility in phosphate buffer (pH 6.8) ([1]; phosphate buffer pH 6.8, 37 degrees Celsius): 10.968±0.182 mg/mL | structural stability (solid form) [2]: structurally stable

CC[C@H]1OC(=O)[C@H](C)[C@@H](O[C@H]2C[C@@](C)(OC)[C@@H](O)[C@H](C)O2)[C@H](C)[C@@H](O[C@@H]2O[C@H](C)C[C@H](N(C)C)[C@H]2O)[C@](C)(O)C[C@@H](C)CN(C)[C@H](C)[C@@H](O)[C@]1(C)O [azithromycin raw material (dihydrate), azithromycin dihydrate]
solubility at 24 h ([1]; 0.1 N hydrochloric acid, simulated gastric fluid, 0.1 N HCl (pH 1), 37 degrees Celsius, read-out: solubility in 0.1 N HCl): 40.81 ± 0.368 mg/mL | solubility at 24 h ([1]; aqueous buffer, acetate buffer pH 4.5, 37 degrees Celsius, read-out: solubility in acetate buffer (pH 4.5)): 17.97 ± 0.113 mg/mL | solubility at 24 h ([1]; aqueous buffer, phosphate buffer pH 6.8, 37 degrees Celsius, read-out: solubility in phosphate buffer (pH 6.8)): 8.442 ± 0.069 mg/mL | solubility at 24 h ([1]; distilled water, 37 degrees Celsius, read-out: solubility in distilled water): 0.148 ± 0.028 mg/mL | water solubility (in words) [3]: poorly soluble in water

CC[C@H]1OC(=O)[C@H](C)[C@@H](O[C@H]2C[C@@](C)(OC)[C@@H](O)[C@H](C)O2)[C@H](C)[C@@H](O[C@@H]2O[C@H](C)C[C@H](N(C)C)[C@H]2O)[C@](C)(O)C[C@@H](C)CN(C)[C@H](C)[C@@H](O)[C@]1(C)O [azithromycin, (2R,3S,4R,5R,8R,10R,11R,12S,13S,14R)-2-ethyl-3,4,10-trihydroxy-3,5,6,8,10,12,14-heptamethyl-15-oxo-11-{[3,4,6-trideoxy-3-(dimethylamino)-β-D-xylo-hexopyranosyl]oxy}-1-oxa-6-azacyclopentadec-13-yl 2,6-dideoxy-3-C-methyl-3-O-methyl-α-L-ribo-hexopyranoside]
acid stability [4]: acid-stable | bioavailability (share of an orally administered dose reaching systemic circulation) [5]: 38%
